How the values were obtained:
[1] = biological target: KRas(G12V) (Homo sapiens (Human), UniProt P01116, G12V); experiment: KRas(G12V) GDP HTRF (BODIPY-GDP exchange TR-FRET); type: biochemical
[2] = biological target: KRas (Homo sapiens (Human), UniProt P01116); experiment: KRas GDP HTRF (BODIPY-GDP exchange TR-FRET); type: biochemical
Summary of the method: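 Inhibition of SOS1-mediated exchange of BODIPY-GDP on KRAS G12D, started with 3 nM recombinant human SOS1 and 300 nM BODIPY-GDP and read after 60 min. TR-FRET excitation 337 nm, ratio 520/490 nm ×10,000. IC50 from 4-parameter Hill fit of normalized data.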

Chain of KRas (P01116-2 other isoform, or with tags, fused parts or gaps): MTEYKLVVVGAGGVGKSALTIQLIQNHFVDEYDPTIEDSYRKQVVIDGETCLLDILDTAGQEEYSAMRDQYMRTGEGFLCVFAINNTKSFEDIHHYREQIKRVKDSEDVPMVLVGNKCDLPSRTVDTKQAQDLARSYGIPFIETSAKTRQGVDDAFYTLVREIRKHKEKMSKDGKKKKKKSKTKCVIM
Chain of KRas(G12V) (P01116-2 other isoform, or with tags, fused parts or gaps G12V): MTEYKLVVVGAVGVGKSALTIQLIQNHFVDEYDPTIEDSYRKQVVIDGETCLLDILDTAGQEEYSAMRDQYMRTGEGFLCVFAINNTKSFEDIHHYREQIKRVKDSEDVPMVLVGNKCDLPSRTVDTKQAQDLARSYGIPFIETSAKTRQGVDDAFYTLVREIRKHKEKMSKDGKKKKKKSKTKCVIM

| SMILES | IC50 [1] | IC50 [2] |
| --- | --- | --- |
| Cc1cc(N)nc(-c2c(Cl)c3c4c(nc(OC[C@@H]5CCCN5CC(F)F)nc4c2F)N([C@H](C)c2nccnc2N)CCO3)c1C(F)(F)F (atropisomer, axis not shown) [Example 158a, 3-((R)-1-((R)-9-(6-amino-4-methyl-3-(trifluoromethyl)pyridin-2-yl)-8-chloro-2-(((S)-1-(2,2-difluoroethyl)pyrrolidin-2-yl)methoxy)-10-fluoro-5,6-dihydro-4H-[1,4]oxazepino[5,6,7-de]quinazolin-4-yl)ethyl)pyrazin-2-amine] | 0.76 nM | 5.41 nM |
| Cc1cc(N)nc(-c2c(Cl)c3c4c(nc(OC[C@@]56CCCN5CC(F)(F)C6)nc4c2F)N([C@H](C)c2nccnc2N)CCO3)c1C(F)(F)F (atropisomer, axis not shown) [Example 165b, 3-((R)-1-((S)-9-(6-amino-4-methyl-3-(trifluoromethyl)pyridin-2-yl)-8-chloro-2-(((S)-2,2-difluorotetrahydro-1H-pyrrolizin-7a(5H)-yl)methoxy)-10-fluoro-5,6-dihydro-4H-[1,4]oxazepino[5,6,7-de]quinazolin-4-yl)ethyl)pyrazin-2-amine] | 890 nM | 2000 nM |
| CNc1cnc(N)c([C@@H](C)N2CCOc3c(Cl)c(-c4nc(N)cc(C)c4C(F)(F)F)cc4ncnc2c34)c1 [Example 58, (R)-3-(1-(9-(6-amino-4-methyl-3-(trifluoromethyl)pyridin-2-yl)-8-chloro-5,6-dihydro-4H-[1,4]oxazepino[5,6,7-de]quinazolin-4-yl)ethyl)-N5-methylpyridine-2,5-diamine] | 18 nM | 34 nM |
| Cc1cc(N)nc(-c2c(Cl)c3c4c(nc(OC[C@@H]5COCCN5)nc4c2F)N([C@H](C)c2cccnc2N)CCO3)c1C(F)(F)F (atropisomer, axis not shown) [Example 96, 6-((R)-4-((R)-1-(2-aminopyridin-3-yl)ethyl)-8-chloro-10-fluoro-2-(((S)-morpholin-3-yl)methoxy)-5,6-dihydro-4H-[1,4]oxazepino[5,6,7-de]quinazolin-9-yl)-4-methyl-5-(trifluoromethyl)pyridin-2-amine] | 0.08 nM | 0.299 nM |
| Cc1cc(N)nc(-c2cc3ncnc4c3c(c2Cl)OC[C@H](CC#N)N4C)c1C(F)(F)F [Example 43, (S)-2-(9-(6-amino-4-methyl-3-(trifluoromethyl)pyridin-2-yl)-8-chloro-4-methyl-5,6-dihydro-4H-[1,4]oxazepino[5,6,7-de]quinazolin-5-yl)acetonitrile] | 2000 nM | 4900 nM |
| Cc1cc(N)nc(-c2cc3ncnc4c3c(c2Cl)OCCN4Cc2cc(F)cnc2N)c1C(F)(F)F [Example 31, 6-(4-((2-amino-5-fluoropyridin-3-yl)methyl)-8-chloro-5,6-dihydro-4H-[1,4]oxazepino[5,6,7-de]quinazolin-9-yl)-4-methyl-5-(trifluoromethyl)pyridin-2-amine] | 440 nM | 2800 nM |
| Cc1cc(N)nc(-c2c(Cl)c3c4c(nc(OC[C@@H]5C[C@@]6(CN5C)CC6(F)F)nc4c2F)N([C@H](C)c2nccnc2N)CCO3)c1C(F)(F)F (atropisomer, axis not shown) [Example 171a, 3-((R)-1-((R)-9-(6-amino-4-methyl-3-(trifluoromethyl)pyridin-2-yl)-8-chloro-2-(((3S,6S)-1,1-difluoro-5-methyl-5-azaspiro[2.4]heptan-6-yl)methoxy)-10-fluoro-5,6-dihydro-4H-[1,4]oxazepino[5,6,7-de]quinazolin-4-yl)ethyl)pyrazin-2-amine] | 0.7 nM | 2.2 nM |
| Cc1cc(N)nc(-c2cc3ncnc4c3c(c2Cl)OCCN4CCC#N)c1C(F)(F)F [Example 13, 3-(9-(6-amino-4-methyl-3-(trifluoromethyl)pyridin-2-yl)-8-chloro-5,6-dihydro-4H-[1,4]oxazepino[5,6,7-de]quinazolin-4-yl)propanenitrile] | 13000 nM | 36000 nM |
